Inhibition and Activity data for three compounds are collected here from ChEMBL document CHEMBL4732086, “Targeting nuclear protein TDP-43 by cell division cycle kinase 7 inhibitors: A new therapeutic approach for amyotrophic lateral sclerosis” (Eur J Med Chem, 2021).

Molecules are shown by their SMILES. Calls of active or inactive are those of the source. The rule behind the calls is not given here.

For data set [1], the system named is Caenorhabditis elegans. As to the kind of experiment: Inhibition of CDC7 in transgenic Caenorhabditis elegans CK423 Bus-8(e2698) expressing human TDP-43 assessed as inhibition of TDP-43 phosphorylation at 10 to 75 uM measured after 6 days by Western blot assay. Conditions: dose 10-75 µM, time 6.0 day. A general note: Immunoblotting shows a protein as a band on a membrane.

Data set [2] relates to SH-SY5Y. Briefly: Neuroprotective activity in human SH-SY5Y cells assessed by effect on TDP-43 levels preincubated for 1 hr followed by incubation with ethacrynic acid for 24 hrs measured at 10 uM by Western blot assay. It counts as functional, cell-based.
Data set [3] concerns SH-SY5Y. As to the kind of experiment: Neuroprotective activity in human SH-SY5Y cells assessed as decrease in ethacrynic acid-induced TDP-43 phosphorylation preincubated for 1 hr followed by incubation with ethacrynic acid for 24 hrs measured at 10 uM by Western blot assay. It counts as functional, cell-based.
Data set [4] concerns SH-SY5Y. As to the kind of experiment: Neuroprotective activity in human SH-SY5Y cells assessed as decrease in cytoplasmic TDP-43 preincubated for 1 hr followed by incubation with ethacrynic acid for 24 hrs measured at 10 uM by immunofluorescence assay. The data set is classed as functional, cell-based.
For data set [5], the target named is RAC-alpha serine/threonine-protein kinase (Homo sapiens) (UniProt P31749). Briefly: Inhibition of recombinant full length human His-tagged AKT1 using serine/threonine-06 peptide as substrate at 10 uM incubated for 60 mins in presence of ATP by Z'-LYTE assay.
Chain of RAC-alpha serine/threonine-protein kinase (Homo sapiens) (P31749 whole entry): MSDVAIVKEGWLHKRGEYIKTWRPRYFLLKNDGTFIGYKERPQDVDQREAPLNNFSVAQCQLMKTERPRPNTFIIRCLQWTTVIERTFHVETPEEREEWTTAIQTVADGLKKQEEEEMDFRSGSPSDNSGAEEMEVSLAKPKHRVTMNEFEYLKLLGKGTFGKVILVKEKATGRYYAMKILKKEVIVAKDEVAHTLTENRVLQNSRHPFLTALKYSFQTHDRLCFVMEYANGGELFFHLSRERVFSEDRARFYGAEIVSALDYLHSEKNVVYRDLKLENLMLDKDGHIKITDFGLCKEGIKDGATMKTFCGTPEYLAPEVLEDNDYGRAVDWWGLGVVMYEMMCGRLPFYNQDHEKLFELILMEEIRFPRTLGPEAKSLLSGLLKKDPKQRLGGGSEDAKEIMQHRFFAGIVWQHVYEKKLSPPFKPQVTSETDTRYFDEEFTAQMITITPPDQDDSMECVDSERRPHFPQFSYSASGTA
Data set [6] deals with T1, Serine/threonine-protein kinase Chk1 (Homo sapiens) (UniProt O14757).
T1 sequence (whole entry): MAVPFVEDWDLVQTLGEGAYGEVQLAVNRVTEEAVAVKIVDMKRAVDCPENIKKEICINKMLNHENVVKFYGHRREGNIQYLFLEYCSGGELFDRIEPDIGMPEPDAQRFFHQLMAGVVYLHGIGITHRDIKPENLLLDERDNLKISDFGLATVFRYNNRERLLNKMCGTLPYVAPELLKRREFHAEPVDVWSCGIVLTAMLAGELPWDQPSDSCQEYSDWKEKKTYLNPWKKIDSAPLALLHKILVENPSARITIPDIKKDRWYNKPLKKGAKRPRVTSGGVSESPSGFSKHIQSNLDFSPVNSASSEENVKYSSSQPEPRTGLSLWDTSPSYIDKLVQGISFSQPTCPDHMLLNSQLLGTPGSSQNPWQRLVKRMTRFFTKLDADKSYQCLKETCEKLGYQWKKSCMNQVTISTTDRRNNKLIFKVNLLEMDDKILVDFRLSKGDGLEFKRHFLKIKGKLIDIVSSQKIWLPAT
Briefly: Inhibition of human CHK1 using serine/threonine-07 peptide as substrate at 10 uM incubated for 60 mins in presence of ATP by Z'-LYTE assay.

Data set [7] in a line: Toxicity in Prp-hTDP43 (A315T) mouse at 5 mg/kg, ip qd for 30 days. The data set is classed as organism-based. The conditions noted are these: in vivo, 720 h, time 30 day.
The subject of data set [8] is Mus musculus. As to the kind of experiment: Neuroprotective activity in Prp-hTDP43 (A315T) transgenic amyotrophic lateral sclerosis mouse model assessed as decrease in clasping behavioural at 5 mg/kg, ip qd measured on week 3 by rotarod test. The data set is classed as functional, organism-based. Conditions: time 3.0 weeks.
The subject of data set [9] is Mus musculus. Briefly: Neuroprotective activity in Prp-hTDP43 (A315T) transgenic amyotrophic lateral sclerosis mouse model assessed as decrease in clasping behavioural at 5 mg/kg, ip qd measured on week 5 by rotarod test. The data set is classed as functional, organism-based. The conditions noted are these: time 5.0 weeks. (In general: In the rotarod test animals must keep their balance on a rotating rod.)

Data set [10] concerns Mus musculus. As to the kind of experiment: Neuroprotective activity in Prp-hTDP43 (A315T) mouse assessed by decrease in TDP-43 phosphorylation in spinal cord tissue at 5 mg/kg, ip qd for 30 days by Western blot assay. The conditions noted are these: time 30.0 day. It counts as functional, organism-based.
Data set [11] has as its system Caenorhabditis elegans. Briefly: Inhibition of CDC7 in transgenic Caenorhabditis elegans CK423 Bus-8(e2698) expressing human TDP-43 assessed as inhibition of TDP-43 phosphorylation at 75 uM measured after 6 days by Western blot assay. Conditions: time 6.0 day.

Regarding `Clc1cccc(CSc2ncnc3[nH]cnc23)c1`, the inhibition result (in the data set on Caenorhabditis elegans [1]; in data set [5]; in data set [6]) was “inactive” each time. Moreover, the outcome in the data set on SH-SY5Y [2] was inactive. Also, the result in the data set with SH-SY5Y [3] and with SH-SY5Y [4] was Active.

`Brc1ccccc1CSc1ncnc2[nH]cnc12`: the Activity result in [7] is recorded as “Non-Toxic”. Moreover, the outcome in the data set on Mus musculus [8], in the data set on Mus musculus [9], in the data set on SH-SY5Y [3] and with Mus musculus [10] was Active. For the same compound, the inhibition result (in the data set on Caenorhabditis elegans [1]; in data set [5]; in [6]) was “inactive” each time. Moreover, the result in the data set on SH-SY5Y [2] was inactive.

Take `c1ccc(CSc2ncnc3[nH]cnc23)cc1`: the outcome with SH-SY5Y [2] was inactive. The result in the data set with SH-SY5Y [3] was Active. The inhibition result with Caenorhabditis elegans [11] is “Active”. Besides, the inhibition result in [5] and in data set [6] was “inactive” throughout.
